# In paper PMC8002023, “3D Pharmacophore-Based Discovery of Novel KV10.1 Inhibitors with Antiproliferative Activity” (Cancers, 2021):
# Entries after “also recorded” stand apart in the source; their conditions may differ.
# What was measured:
# [1] = tested on: MCF-7 cells; experiment: Cell growth in 2D culture (Incucyte confluence, 72 h), MCF-7; format: cell-based; details: for IC50: high KV10.1 and low hERG expression
# Experimental: Cell lines MCF-7 (DSMZ ACC 115), PANC-1 (DSMZ ACC 783), and hTERT-RPE1 (ATCC CRL 4000) were grown in the media recommended by the cell provider in a humidified atmosphere at 5% CO2 and 37 °C. For cell growth experiments, 10^4 cells/well were seeded in 96-well flat bottom culture plates (Corning) and allowed to grow for 24 h. The compounds were then added in the corresponding growth medium, and the plate was imaged every hour for 72 h (two images per well and eight wells per condition in two independent experiments for compound 8 and five for ZVS-08 and compound 1) in an Incucyte system (Sartorius/Essen biosciences). Culture confluence was determined in the phase contrast images and is expressed as percent confluence per well. The growth was then normalised to the value in the absence of compounds.
# KV10.1 inhibitors with a favourable pharmacological profile are promising candidates for cancer therapy. To investigate the activity of the new compounds on cancer cells proliferation, compounds ZVS-08, 1 and 8 were tested on MCF-7, a breast cancer cell line showing high KV10.1 expression and low hERG expression, and on Panc1, a pancreatic cancer cell line with undetectable KV10.1 expression and high level of hERG expression. hTERT-RPE1 cells served as a non-cancer cell line. hTERT-RPE1 cells show transient physiological expression of Kv10.1 that begins during the G2 phase of the cell cycle and extends through mitosis as present in normal cells. Different concentrations of the compounds were added to the culture medium and the growth of the cell was monitored over 72 h (Figure 14).
# [2] = tested on: Colo357 tumour spheroids; experiment: Apoptosis (caspase 3/7 reporter) in tumour spheroids; format: cell-based; details: 50 µM, caspase reporter fluorescence over 72 h, 8.9 µM cycloheximide as sensitizer
# Experimental: Spheroids were cultured in round bottom ultra-low attachment 96-well plates (Corning) at a density of 5000 cells/well in 2% Matrigel (Corning) and centrifuged at 1000× g for 10 min. Spheroid formation was monitored continuously in the Incucyte system and treatments were added once spheroids were formed. As apoptosis sensitizer, 8.9 µM cycloheximide was added to controls and treated spheroids. Caspase 3/7 green reagent (Sartorius; 1:1000) was used as recommended by the manufacturer. Caspase 3/7 reagent substrate crosses the cell membrane and its cleavage by activated caspase-3/7 results in the release of a DNA dye and fluorescent staining of nuclear DNA.
# To test the ability of the compounds to inhibit tumour progression in a more predictive system, we performed experiments on tumour spheroids of the pancreatic cancer cell line Colo357, which grows efficiently in this culture modality. The cells were seeded in the presence of Matrigel (see methods), allowed to form spheroids, and the compounds (50 µM) were added to the growth medium. The control contained the same amount of the vehicle (0.5% DMSO). Apoptosis was monitored by addition of a fluorescent […] activity reporter at the same time as the compounds. Cleavage of the reporter by caspase results in green florescence, and the intensity of the fluorescence was recorded over 72 h.
# [3] = target: T1, hERG (Homo sapiens, UniProt Q12809); experiment: Whole-cell patch clamp on stably transfected HEK-293 cells, hERG tail current; format: cell-based; details: peak tail current at −40 mV after +20 mV
# T1 construct: expressed in transfected cells
# Experimental: Whole-cell patch clamp experiments were performed on stably transfected HEK-293 cells. The cells were grown on fibronectin-coated glass coverslips in DMEM supplemented with 10% FCS and 300 µg/mL Zeocin. Experiments were performed at room temperature under continuous perfusion. The extracellular solution contained (mM) 160 NaCl, 2.5 KCl, 2 CaCl2, 1 MgCl2, 10 Hepes/NaOH, pH 7.4, 8 glucose. For the experiments determining conductance–voltage relationships, tail currents were made visible by substituting 60 mM NaCl by KCl ([…], 100 NaCl). Pipettes were pulled from #1 glass capillaries (WPI) to resistances of 1–3 MΩ when loaded with the intracellular solution (100 KCl, 45 N-methyl-D-glucamine, 10 1,2-bis(o-aminophenoxy)ethane-N,N,N′,N′-tetraacetic acid (BAPTA), 10 Hepes pH 7.35). Data acquisition was performed using a EPC10 Plus amplifier (HEKA Elektronik) and Patch Master software. Drug application was performed using an 8-channel fast solution exchanger (ALA). All compounds were dissolved in DMSO to a final concentration of 10 mM. 0.5% DMSO in extracellular solution served as control. KV10.1 currents were elicited by 500 ms depolarisations to +40 mV under continuous perfusion with the compound-containing or control solution. hERG current amplitudes were measured as the peak tail current during a 4 s repolarization to −40 mV after a depolarising pulse to +20 mV lasting for 2 s.
# [4] = tested on: Salmonella typhimurium strain TA98; experiment: Salmonella/microsomal reverse mutation (Ames) assay, TA98; design: key to bacterial background lawn: slightly reduced bacterial background; moderately reduced bacterial background; extremely reduced bacterial background; bacterial background is absent; details: for mutagenic response: TA98, 0.0158–0.158 mg/plate, −S9 and +S9; for induction factor (IF): IF ≥ 2 positive; for cytotoxic concentration to bacterial strain: TA98, −/+ S9 metabolic activation
# Experimental: Mutagenicity of compounds ZVS-08 and 8 was tested with the Salmonella/microsomal reverse mutation (Ames) assay on Salmonella typhimurium strains TA98 and TA100 without and with external metabolic activation according to the OECD guidelines (OECD TG 471) with minor modifications. Briefly, 100 µL of ZVS-08 and 8 (0.158, 0.5, 1.58, 5, 15.8, and 50 mg/mL corresponding to the final concentration of 0.0158, 0.05, 0.158, 0.5, 1.58, and 5 mg/plate, respectively), […] bacterial culture of S. typhimurium (overnight culture at 37 °C), and […] of phosphate buffer (for assays without metabolic activation) or 10% S9 mix (for assays with metabolic activation) were added to 2 mL of molten top agar (supplemented with histidine/biotin, final concentration 0.05 mM), gently mixed and poured onto minimal agar plates. The number of His+ revertants was counted after 48 h (TA100) and 72 h (TA98) of incubation at 37 °C. Three plates were used per treatment point. The mutagenic potential of the compounds was expressed as an induction factor (IF), where IF = (number of revertants in the presence of the compound)/(number of revertants in solvent control). Additionally, each plate was checked for possible toxic effects of tested compounds. […] 4-nitroquinoline- N-oxide (4-NQNO; 0.25 μg/plate) for TA98 and sodium azide (NaN3; 0.25 μg/plate) for TA100 were used as positive controls without S9 metabolic activation, while benzo[a]pyrene (B[a]P; 2.5 μg/plate) was used as positive controls for both bacterial strains with S9 metabolic activation.
# T1 sequence (Q12809 whole entry): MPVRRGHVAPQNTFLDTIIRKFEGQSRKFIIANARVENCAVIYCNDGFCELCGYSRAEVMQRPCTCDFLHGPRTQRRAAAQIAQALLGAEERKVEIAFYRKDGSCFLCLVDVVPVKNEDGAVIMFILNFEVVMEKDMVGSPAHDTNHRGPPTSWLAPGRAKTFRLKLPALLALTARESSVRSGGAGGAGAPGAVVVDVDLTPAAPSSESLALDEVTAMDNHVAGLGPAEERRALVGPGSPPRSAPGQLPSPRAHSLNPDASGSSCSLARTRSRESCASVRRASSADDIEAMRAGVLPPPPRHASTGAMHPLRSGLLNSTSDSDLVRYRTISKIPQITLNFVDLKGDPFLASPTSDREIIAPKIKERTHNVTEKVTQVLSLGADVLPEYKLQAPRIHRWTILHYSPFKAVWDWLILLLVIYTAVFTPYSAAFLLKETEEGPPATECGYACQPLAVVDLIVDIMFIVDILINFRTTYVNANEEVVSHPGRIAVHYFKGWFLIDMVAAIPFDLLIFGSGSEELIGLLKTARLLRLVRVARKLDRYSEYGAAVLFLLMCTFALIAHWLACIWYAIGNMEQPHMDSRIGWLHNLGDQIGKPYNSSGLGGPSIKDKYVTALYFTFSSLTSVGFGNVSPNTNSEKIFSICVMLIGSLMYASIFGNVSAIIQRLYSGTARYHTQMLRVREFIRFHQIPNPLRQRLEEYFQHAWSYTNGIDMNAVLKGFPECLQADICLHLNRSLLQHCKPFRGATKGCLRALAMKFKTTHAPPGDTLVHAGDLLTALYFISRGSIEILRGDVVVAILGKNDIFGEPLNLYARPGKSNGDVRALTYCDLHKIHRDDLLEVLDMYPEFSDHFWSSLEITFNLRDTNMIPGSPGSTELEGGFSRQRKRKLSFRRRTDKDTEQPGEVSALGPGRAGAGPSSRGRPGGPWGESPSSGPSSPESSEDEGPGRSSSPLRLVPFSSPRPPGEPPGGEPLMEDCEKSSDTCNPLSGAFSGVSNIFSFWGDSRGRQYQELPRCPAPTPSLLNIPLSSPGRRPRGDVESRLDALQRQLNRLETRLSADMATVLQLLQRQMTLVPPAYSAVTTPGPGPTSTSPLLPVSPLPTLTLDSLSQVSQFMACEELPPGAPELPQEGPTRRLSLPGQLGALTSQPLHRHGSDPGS
smiles,measurement,setting,value
CN(C)CC(O)COc1ccc(Nc2ccc(C(F)(F)F)cc2[N+](=O)[O-])cc1 (stereo not shown) [ZVS-08],IC50,"[1]; Homo sapiens, MCF7, 72 h",6.8 µM
same,IC50,[1],~5 µM
same,apoptosis induction in tumour spheroids,[2],induced apoptosis efficiently starting very early
same,IC50,[3],0.194 µM
same,mutagenic response,[4],no mutagenic response
same,Average number of revertant colonies (mean ± SD),"[4]; TA98, +S9, 0.0158 mg/plate",31.00 ± 3.61
same,induction factor (IF),"[4]; TA98, +S9, 0.0158 mg/plate",0.85
same,Average number of revertant colonies (mean ± SD),"[4]; TA98, +S9, 0.05 mg/plate",45.33 ± 8.62
same,induction factor (IF),"[4]; TA98, +S9, 0.05 mg/plate",1.25
same,Average number of revertant colonies (mean ± SD),"[4]; TA98, +S9, 0.158 mg/plate",34.67 ± 14.05
same,bacterial background lawn,"[4]; TA98, +S9, 0.158 mg/plate",a
same,induction factor (IF),"[4]; TA98, +S9, 0.158 mg/plate",0.95
same,Average number of revertant colonies (mean ± SD),"[4]; TA98, +S9, 0.5 mg/plate",0
same,bacterial background lawn,"[4]; TA98, +S9, 0.5 mg/plate",b
same,Average number of revertant colonies (mean ± SD),"[4]; TA98, +S9, 1.58 mg/plate",0
same,bacterial background lawn,"[4]; TA98, +S9, 1.58 mg/plate",d
same,Average number of revertant colonies (mean ± SD),"[4]; TA98, +S9, 5 mg/plate",0
same,bacterial background lawn,"[4]; TA98, +S9, 5 mg/plate",d
same,Average number of revertant colonies (mean ± SD),"[4]; TA98, -S9, 0.0158 mg/plate",21.67 ± 4.51
same,induction factor (IF),"[4]; TA98, -S9, 0.0158 mg/plate",0.86
same,Average number of revertant colonies (mean ± SD),"[4]; TA98, -S9, 0.05 mg/plate",22.67 ± 8.08
same,induction factor (IF),"[4]; TA98, -S9, 0.05 mg/plate",0.89
same,Average number of revertant colonies (mean ± SD),"[4]; TA98, -S9, 0.158 mg/plate",17.67 ± 3.79
same,bacterial background lawn,"[4]; TA98, -S9, 0.158 mg/plate",a
same,induction factor (IF),"[4]; TA98, -S9, 0.158 mg/plate",0.70
same,Average number of revertant colonies (mean ± SD),"[4]; TA98, -S9, 0.5 mg/plate",0
same,bacterial background lawn,"[4]; TA98, -S9, 0.5 mg/plate",c
same,Average number of revertant colonies (mean ± SD),"[4]; TA98, -S9, 1.58 mg/plate",0
same,bacterial background lawn,"[4]; TA98, -S9, 1.58 mg/plate",d
same,Average number of revertant colonies (mean ± SD),"[4]; TA98, -S9, 5 mg/plate",0
same,bacterial background lawn,"[4]; TA98, -S9, 5 mg/plate",d
same,cytotoxic concentration to bacterial strain,[4],≥ 0.5 mg/plate
O=[N+]([O-])c1cc(C(F)(F)F)ccc1Nc1ccc(OCC(O)CN2CCOCC2)cc1 (stereo not shown) [Compound 8],effect on growth of MCF-7 cells,[1]; concentrations tested,ineffective; also recorded: inactive
same,apoptosis induction in tumour spheroids,[2],apoptosis statistically significant over the control starting only after 24 h
same,IC50,[3],0.156 µM
same,mutagenic response,[4],no mutagenic response
same,cytotoxic concentration to bacterial strain,[4],≥ 0.5 mg/plate
